Laboratory results as given in patent US11311538B2, “Compositions and methods for targeting cancers” (YALE UNIVERSITY, priority 2018, dated 2022).

Key:
Assay type in all cases: in vivo, mouse
[1] = test system: shFH-expressing HEK293FT tumor xenografts; test: Tumor growth delay assay, shFH HEK293FT xenografts
Description: In vivo efficacy studies: HEK293FT xenografts. Female athymic nu/nu mice (Hsd:Athymic Nude-Foxnlnu, Envigo) were used for all in vivo xenograft studies. Mice were quarantined for at least 1 week before experimental manipulation. Tumors were formed using shRNA-expressing versions of the tumorigenic human embryonic kidney cell-derived line, HEK293FT. HEK293FT is a subline of HEK293 cells that has been transformed by expression of SV40 Large T-antigen. […], or shCTRL (non-targeted control) expressing HEK293FT cells were implanted subcutaneously (5×10^6 cells in 0.1 cc PBS) in the right flank of nude mice. Two efficacy studies were conducted. In one, mice were randomized into treatment and non-treated groups (10 mice/group) at day 3, with treatment initiation 4 days post implant. In a second independent in vivo efficacy study, mice were injected as above with 10 mice per group, and treatment was started only once the tumor volumes reached […]. For both studies, mice were visually observed daily and tumors were measured three times per week by calipers to determine tumor volume using the formula: Volume=L×W×W×0.532. Mice were fed with a grain based rodent diet containing Doxycycline at 200 mg/kg (Bioserv, Catalog #S3888). BMN-673 was solubilized in DMSO and diluted with PBS containing 10% dimethylacetamide (Sigma-Aldrich) and 6% Solutol (Sigma). BMN-673 (0.5 mg/kg, 0.2 cc), or vehicle (0.2 cc) was administered by oral gavage once daily for the duration of the experiment. Mean (geometric) tumor volume (mm^3) was plotted over time to monitor tumor growth. P-values were determined by ANOVA with repeated measures. In vivo efficacy studies: UOK 262 xenografts. Female athymic nu/nu mice (Hsd:Athymic Nude-Foxnlnu, Envigo) were used for all in vivo xenograft studies. Mice were quarantined for at least 1 week before experimental manipulation. UOK 262 cells were implanted subcutaneously using 5×10^6 cells in 0.1 cc PBS mixed with 0.1 cc of Corning Matrigel Matrix (Cat. No. 354234) per animal. Mice were randomized at day 3 day into two groups (n=10/group). […]

[2] = test system: shCTRL-expressing HEK293FT tumor xenografts; test: Tumor growth delay assay, shCTRL HEK293FT xenografts
Description: (§1) In vivo efficacy studies: HEK293FT xenografts. Female athymic nu/nu mice (Hsd:Athymic Nude-Foxnlnu, Envigo) were used for all in vivo xenograft studies. Mice were quarantined for at least 1 week before experimental manipulation. Tumors were formed using shRNA-expressing versions of the tumorigenic human embryonic kidney cell-derived line, HEK293FT. HEK293FT is a subline of HEK293 cells that has been transformed by expression of SV40 Large T-antigen. […], or shCTRL (non-targeted control) expressing HEK293FT cells were implanted subcutaneously (5×10^6 cells in 0.1 cc PBS) in the right flank of nude mice. Two efficacy studies were conducted. In one, mice were randomized into treatment and non-treated groups (10 mice/group) at day 3, with treatment initiation 4 days post implant. In a second independent in vivo efficacy study, mice were injected as above with 10 mice per group, and treatment was started only once the tumor volumes reached […]. For both studies, mice were visually observed daily and tumors were measured three times per week by calipers to determine tumor volume using the formula: Volume=L×W×W×0.532. Mice were fed with a grain based rodent diet containing Doxycycline at 200 mg/kg (Bioserv, Catalog #S3888). […] P-values were determined by ANOVA with repeated measures. […]

[3] = test system: HLRCC UOK 262 xenograft tumors; test: Tumor growth delay assay, UOK 262 xenografts; settings: BMN-673 0.5 mg/kg gavage daily, started at average tumor size 250 mm^3 (FIG. 4M)
Description: as §1

## Cn1ncnc1[C@H]1c2n[nH]c(=O)c3cc(F)cc(c23)N[C@@H]1c1ccc(F)cc1 [BMN-673, BMN-673 (Talazoparib)]
[1]; treatment after tumors reached 95-150 mm^3, 0.5 mg/kg oral gavage once daily (FIG. 4H)
  tumor growth vs vehicle, FH-deficient tumors: inhibited the growth
[1]; treatment beginning four days after implantation, 0.5 mg/kg oral gavage once daily (FIG. 4E)
  tumor growth vs vehicle, shFH tumors: robust suppression of tumor growth
[1]; two separate sets of in vivo efficacy studies, 0.5 mg/kg oral gavage once daily
  growth of FH-deficient tumors: significantly inhibited the growth
[2]; treatment after tumors reached 95-150 mm^3, 0.5 mg/kg oral gavage once daily (FIG. 4I)
  tumor growth vs vehicle, shCTRL tumors: no growth inhibition
[2]; treatment beginning four days after implantation, 0.5 mg/kg oral gavage once daily (FIG. 4F)
  tumor growth vs vehicle, shCTRL tumors: no effect
[3]
  tumor growth delay, UOK 262 xenografts: substantial growth delay
